Results published in US20230295103A1 (priority 2020, published 2023).
In brackets after ≈: the same amount, converted by molar mass.

How the values were obtained:
[1] = system: human cells A498, BEAS-2B, Caco-2, HaCaT, HepG2, HUVEC, IMR90, N87
[2] = system: Streptomyces roietensis (DSM 101729); experiment: microbe, parasite or virus in culture; assay type: cell-based; conditions: DSM101729, read-out: Minimal Inhibitory Concentration (MIC)
B. mallei = experiment: microbe, parasite or virus in culture; assay type: cell-based; conditions: Burkholderia mallei, read-out: Minimal Inhibitory Concentration (MIC)
B. cepacia = experiment: microbe, parasite or virus in culture; assay type: cell-based; conditions: Burkholderia cepacia, read-out: Minimal Inhibitory Concentration (MIC)
B. pseudomallei = experiment: microbe, parasite or virus in culture; assay type: cell-based; conditions: Burkholderia pseudomallei, read-out: Minimal Inhibitory Concentration (MIC)
[3] = system: large panel of bacteria including Gram+ and Gram- bacteria and Mycobacterium as well as fungi associated to plant infection; assay type: cell-based
[4] = system: E. coli (ATCC 8739), B. subtilis (ATCC 6633), P. aeruginosa (ATCC 9027), S. aureus (ATCC 6538P), H. pylori (ATCC43504), C. albicans (ATCC 200498); assay type: cell-based
[5] = system: Pseudomonas syringae (DSM 10604); experiment: microbe, parasite or virus in culture; assay type: cell-based; conditions: DSM10604, read-out: Minimal Inhibitory Concentration (MIC)
[6] = system: human liver cell line HepG2 (ATCC HB-8065); experiment: cells; conditions: HepG2, 48 h, read-out: IC50 on the viability of HepG2 cells
[7] = system: human liver cell line HepG2 (ATCC HB-8065)
[8] = system: P. aeruginosa (ATCC 9027); assay type: cell-based, Pseudomonas aeruginosa
Erwina cacticida = conditions: cited from earlier work
Phoma medicaginis = conditions: cited from earlier work

## CC(=O)Nc1ccc2c(c1)C(=O)/C(=C/c1ccccc1)O2
other
  melting point: 241 °C

## CC(=O)Nc1ccc2c(c1)C(=O)/C(=C/c1cccc(OCc3ccccc3)c1)O2 [A7, (Z)-N-(2-(3-(benzyloxy)benzylidene)-3-oxo-2,3-dihydrobenzofuran-5-yl)acetamide]
[1]
  Therapeutic index (TI) or safe factor (SF): 38-4017
  mean of TI/SF: 370
[2]
  MIC: 6.25 to 12.5 µM (≈ 2.41 to 4.82 µg/mL)
B. mallei
  MIC: 1.5 to 12.5 µM (≈ 0.578 to 4.82 µg/mL)
B. cepacia
  MIC: 3.12 to 12.5 µM (≈ 1.2 to 4.82 µg/mL)
B. pseudomallei
  MIC: 1.5 to 12.5 µM (≈ 0.578 to 4.82 µg/mL)
[3]
  antimicrobial activity, spectrum: confirmed the activity
[4]
  antimicrobial activity on tested strains (ranking): the more active
[5]
  MIC: 1.5 to 3.12 µM (≈ 0.578 to 1.2 µg/mL)

## CC(=O)Nc1ccc2c(c1)C(=O)/C(=C/c1ccc(OCc3ccccc3)c(OCc3ccccc3)c1)O2 [AD-1-49, (Z)-N-(2-(3,4-bis(benzyloxy)benzylidene)-3-oxo-2,3-dihydrobenzofuran-5-yl)acetamide]
[6]
  IC50: > 250 µM

## COc1cccc(/C=C2\Oc3ccc(C(=O)O)cc3C2=O)c1 [AD-1-61, (2Z)-2-(3-methoxybenzylidene)-3-oxo-2,3-dihydro-1-benzofuran-5-carboxylic acid]
[6]
  IC50: > 250 µM

## CN(C)c1ccc(/C=C2\Oc3ccc(C(=O)O)cc3C2=O)cc1 [AD-1-62, (2Z)-2-[4-(dimethylamino)benzylidene]-3-oxo-2,3-dihydro-1-benzofuran-5-carboxylic acid]
[6]
  IC50: > 250 µM

## Nc1ccc2c(c1)C(=O)/C(=C/c1cccc(Oc3ccccc3)c1)O2 [B1, (Z)-5-amino-2-(3-phenoxybenzylidene)benzofuran-3(2H)-one]
[2]
  MIC: 6.25 to 12.5 µM (≈ 2.06 to 4.12 µg/mL)
B. mallei
  MIC: 1.5 to 12.5 µM (≈ 0.494 to 4.12 µg/mL)
B. cepacia
  MIC: 3.12 to 12.5 µM (≈ 1.03 to 4.12 µg/mL)
B. pseudomallei
  MIC: 1.5 to 12.5 µM (≈ 0.494 to 4.12 µg/mL)
[5]
  MIC: 1.5 to 3.12 µM (≈ 0.494 to 1.03 µg/mL)

## CC(=O)Nc1ccc2c(c1)C(=O)/C(=C/c1ccc(OC(C)C)cc1)O2 [B5, (Z)-N-(2-(4-isopropoxybenzylidene)-3-oxo-2,3-dihydrobenzofuran-5-yl)acetamide]
[1]
  Therapeutic index (TI) or safe factor (SF): 38-4017
  mean of TI/SF: 103
[2]
  MIC: 6.25 to 12.5 µM (≈ 2.11 to 4.22 µg/mL)
B. mallei
  MIC: 1.5 to 12.5 µM (≈ 0.506 to 4.22 µg/mL)
B. cepacia
  MIC: 3.12 to 12.5 µM (≈ 1.05 to 4.22 µg/mL)
B. pseudomallei
  MIC: 1.5 to 12.5 µM (≈ 0.506 to 4.22 µg/mL)
[3]
  antimicrobial activity, spectrum: confirmed the activity
[4]
  antimicrobial activity on tested strains (ranking): the more active
[5]
  MIC: 1.5 to 3.12 µM (≈ 0.506 to 1.05 µg/mL)

## CC(=O)Nc1ccc2c(c1)C(=O)/C(=C/c1ccc(C(=O)O)cc1)O2 [C4, (Z)-4-((5-acetamido-3-oxobenzofuran-2(3H)-ylidene)methyl)benzoic acid]
B. mallei
  MIC: 1.5 to 12.5 µM (≈ 0.485 to 4.04 µg/mL)
B. pseudomallei
  MIC: 1.5 to 12.5 µM (≈ 0.485 to 4.04 µg/mL)

## COc1c(C)c(O)c(C)c2c1C(=O)/C(=C/c1ccccc1)O2 [C10, (Z)-2-benzylidene-6-hydroxy-4-methoxy-5,7-dimethylbenzofuran-3(2H)-one]
B. mallei
  MIC: 1.5 to 12.5 µM (≈ 0.444 to 3.7 µg/mL)
B. pseudomallei
  MIC: 1.5 to 12.5 µM (≈ 0.444 to 3.7 µg/mL)

## COc1ccc(/C=C2\Oc3cc(N)ccc3C2=O)cc1 [C11, (Z)-6-amino-2-(4-methoxybenzylidene)benzofuran-3(2H)-one]
[1]
  Therapeutic index (TI) or safe factor (SF): 38-4017
  mean of TI/SF: 355
[2]
  MIC: 6.25 to 12.5 µM (≈ 1.67 to 3.34 µg/mL)
B. mallei
  MIC: 1.5 to 12.5 µM (≈ 0.401 to 3.34 µg/mL)
B. cepacia
  MIC: 3.12 to 12.5 µM (≈ 0.834 to 3.34 µg/mL)
B. pseudomallei
  MIC: 1.5 to 12.5 µM (≈ 0.401 to 3.34 µg/mL)
[3]
  antimicrobial activity, spectrum: confirmed the activity
[4]
  antimicrobial activity on tested strains (ranking): the more active
[5]
  MIC: 1.5 to 3.12 µM (≈ 0.401 to 0.834 µg/mL)

## O=C1/C(=C/c2ccc(OCc3ccccc3)cc2OCc2ccccc2)Oc2ccccc21 [C12, (Z)-2-(2,4-bis(benzyloxy)benzylidene)benzofuran-3(2H)-one]
[1]
  Therapeutic index (TI) or safe factor (SF): 38-4017
  mean of TI/SF: 1169
B. mallei
  MIC: 1.5 to 12.5 µM (≈ 0.652 to 5.43 µg/mL)
B. cepacia
  MIC: 3.12 to 12.5 µM (≈ 1.36 to 5.43 µg/mL)
B. pseudomallei
  MIC: 1.5 to 12.5 µM (≈ 0.652 to 5.43 µg/mL)
[3]
  antimicrobial activity, spectrum: confirmed the activity
[4]
  antimicrobial activity on tested strains (ranking): the more active

## COc1cc(/C=C2\Oc3ccc(NC(C)=O)cc3C2=O)cc(OC)c1OC [D1, (Z)-N-(3-oxo-2-(3,4,5-trimethoxybenzylidene)-2,3-dihydrobenzofuran-5-yl)acetamide]
B. mallei
  MIC: 1.5 to 12.5 µM (≈ 0.554 to 4.62 µg/mL)
B. cepacia
  MIC: 3.12 to 12.5 µM (≈ 1.15 to 4.62 µg/mL)
other
  melting point: 254 °C
B. pseudomallei
  MIC: 1.5 to 12.5 µM (≈ 0.554 to 4.62 µg/mL)

## COc1ccc(/C=C2\Oc3ccccc3C2=O)cc1 [D10, (Z)-2-(4-methoxybenzylidene)benzofuran-3(2H)-one]
[2]
  MIC: 6.25 to 12.5 µM (≈ 1.58 to 3.15 µg/mL)
B. mallei
  MIC: 1.5 to 12.5 µM (≈ 0.378 to 3.15 µg/mL)
B. cepacia
  MIC: 3.12 to 12.5 µM (≈ 0.787 to 3.15 µg/mL)
B. pseudomallei
  MIC: 1.5 to 12.5 µM (≈ 0.378 to 3.15 µg/mL)
[5]
  MIC: 1.5 to 3.12 µM (≈ 0.378 to 0.787 µg/mL)

## O=C1/C(=C/c2ccc(Oc3ccc4oc(-c5ccccc5)cc(=O)c4c3)cc2)Oc2ccccc21 [E5, (Z)-6-(4-((3-oxobenzofuran-2(3H)-ylidene)methyl)phenoxy)-2-phenyl-4H-chromen-4-one]
[1]
  Therapeutic index (TI) or safe factor (SF): 38-4017
  mean of TI/SF: 852
[2]
  MIC: 6.25 to 12.5 µM (≈ 2.87 to 5.73 µg/mL)
[3]
  antimicrobial activity, spectrum: confirmed the activity
[4]
  antimicrobial activity on tested strains (ranking): the more active
[5]
  MIC: 1.5 to 3.12 µM (≈ 0.688 to 1.43 µg/mL)

## O=C(O)c1ccc2c(c1)C(=O)/C(=C/c1ccc(OCc3ccccc3)c(OCc3ccccc3)c1)O2 [MR1065, (Z)-2-(3,4-bis(benzyloxy)benzylidene)-3-oxo-2,3-dihydrobenzofuran-5-carboxylic acid]
[7]
  Therapeutic index (TI) or safe factor (SF): 712.82

## O=C(O)CCCCCOc1ccc(/C=C2\Oc3ccccc3C2=O)cc1 [MR1076, (Z)-6-(4-((3-oxobenzofuran-2(3H)-ylidene)methyl)phenoxy)hexanoic acid]
[8]
  antimicrobial activity: active
[6]
  IC50: > 250 µM

## cephalocerone
Erwina cacticida
  growth inhibition: inhibit the growth

## hispidol
Phoma medicaginis
  inhibition of fungal pathogen: inhibit

## hispidol-4′-O-β-D-glucoside
Phoma medicaginis
  inhibition of fungal pathogen: inhibit
